The values that follow come from patent US6833372B2, “Non-peptide GnRH agents, Pharmaceutical compositions, and methods for their use” (Pfizer, Inc., priority 2002, dated 2004).

Series [1] can be described thus: Solubility at pH2 and pH6. The class given is physicochemical.
A short description of series [2]: In vitro metabolism: disappearance of parent compound in human liver microsomes. It is filed as in vitro ADME. The following applies: 5 uM compound, 0.5 mg/ml protein, 2 mM NADPH, 30 minutes 37° C. On the procedure:
(§1) Human, rat, dog, and monkey liver microsomes were isolated by differential centrifugation. Specimens of human liver were obtained from the International Institute for the Advancement of Medicine (Scranton, Pa.). The disappearance of the parent compound was studied in a mixture containing 5 uM compound, 0.5 mg/ml microsomal protein, and 2 mM NADPH in 50 mM K phosphate buffer, pH 7.4. Samples were incubated for 30 minutes at 37° C. The reaction was terminated by the addition of acetonitrile and compounds analyzed by LC-MS as described above.
(Liver microsomes are vesicles of endoplasmic reticulum, rich in cytochrome P450 enzymes.)

The nature of series [3]: In vitro metabolism: disappearance of parent compound in rat liver microsomes (male, female). The class given is in vitro ADME. The following applies: 5 uM compound, 30 minutes 37° C.; for Fem. Rat (FR) % rem. 30′: female rat liver microsomes; for Male Rat (MR) % rem. 30′: male rat liver microsomes. On the procedure: as §1
A short description of series [4]: In vitro metabolism: disappearance of parent compound in dog liver microsomes. Conditions: 5 uM compound, 30 minutes 37° C. The class given is in vitro ADME. On the procedure:
as §1

A short description of series [5]: In vitro metabolism: disappearance of parent compound in monkey liver microsomes. It is filed as in vitro ADME. The following applies: 5 uM compound, 30 minutes 37° C. How it is done:
as §1

In series [6] the target is T1, rat GnRH receptor (Rattus norvegicus, UniProt P30969).
T1 construct: or rat pituitaries (Pel Freez Biologicals, Rogers, Ark.) were homogenized; tissue Pel Freez Biologicals; host or cells: rat pituitaries (membrane preparation)
T1 sequence (P30969 1-327): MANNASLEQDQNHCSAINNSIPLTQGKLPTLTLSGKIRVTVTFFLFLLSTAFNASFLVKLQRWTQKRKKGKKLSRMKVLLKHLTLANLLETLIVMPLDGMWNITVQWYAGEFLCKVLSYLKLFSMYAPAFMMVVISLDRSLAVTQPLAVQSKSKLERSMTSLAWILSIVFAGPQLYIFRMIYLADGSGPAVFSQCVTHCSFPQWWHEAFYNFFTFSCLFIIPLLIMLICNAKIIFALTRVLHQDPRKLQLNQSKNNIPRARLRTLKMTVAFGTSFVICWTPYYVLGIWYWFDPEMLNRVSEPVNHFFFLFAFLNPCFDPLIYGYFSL
As to the kind of experiment: Radioligand binding: inhibition of 125I-GnRH-A binding to rat GnRH receptor (rat pituitary membranes). Conditions: read-out: Ki (nM), Inhibition Binding of 125I-GnRH-A to GnRH Receptors. The method in brief: (§2)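 Membranes from rat pituitaries, or HEK 293 cells stably expressing mouse or human receptor, incubated 1 hour at room temperature with ~0.04-0.06 nM radioligand (HEPES pH 7.4, EDTA, MgCl2, BSA) and competitor at 0.1-10,000 nM. Bound ligand collected by GF/C filtration and counted; Ki derived from IC50 by Cheng-Prusoff.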

Series [7] has as its target T2, human GnRH receptors (Homo sapiens, UniProt P30968).
T2 construct: expressed in transfected cells; host or cells: HEK 293 cells, stably transfected; membranes
T2 sequence (P30968 1-328): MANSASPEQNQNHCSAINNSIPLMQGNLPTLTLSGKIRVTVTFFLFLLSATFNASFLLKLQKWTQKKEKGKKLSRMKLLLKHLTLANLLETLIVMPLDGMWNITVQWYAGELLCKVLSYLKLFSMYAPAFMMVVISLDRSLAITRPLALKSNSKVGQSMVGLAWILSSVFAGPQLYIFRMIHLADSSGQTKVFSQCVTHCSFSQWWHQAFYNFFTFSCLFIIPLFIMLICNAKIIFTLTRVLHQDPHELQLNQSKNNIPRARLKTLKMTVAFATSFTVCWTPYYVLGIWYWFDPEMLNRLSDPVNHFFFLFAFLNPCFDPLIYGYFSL
As to the kind of experiment: Radioligand binding: inhibition of 125I-GnRH-A binding to human GnRH receptor membranes. The following applies: HEK 293 cell membranes. In outline: as §2

Series [8] in a line: Pharmacokinetics in rats (jugular vein cannula, plasma LC-MS). It is filed as in vivo, Rat. Conditions: female rat, 10 mg/kg as 5 mg/ml solution in 10% DMSO, 10% cremophor, 80% saline (footnote 5), 10 mg/kg; for Cmax: read-out: FR Cmax. How it is done: Rats (male or female, 200-225 g) were prepared with indwelling jugular vein cannula as described by Harms et al., Applied Physiol. 36:391-398 (1974), and allowed to recover overnight with free access to the standard vivarium chow and water. […] […] The blood samples were withdrawn at specific times, plasma was immediately separated and compound extracted with ethyl acetate. The samples were analyzed by LC-MS using 30-90% gradient of ACN in 50 mM ammonium acetate.
The pharmacokinetic parameters were calculated using WinNonlin software (Scientific Consulting Inc.). The bioavailability was calculated as AUCp.o./AUCi.v., where AUCp.o. and AUC i.v. are areas under the plasma concentration-time curve after oral and i.v. administration, respectively.

Series [9] can be described thus: Rat plasma % remain. The class given is in vitro ADME.
The target of series [10] is H S A (Homo sapiens, UniProt P02768). Description: H S A column α. The class given is in vitro ADME.
The mark [11] stands for this setting: pH 6, aqueous buffer, pH6, read-out: Solubility μg/ml pH6.

Values after ≈ are worked out from the molar mass of the structure shown. Read-outs that look alike come from different tables or passages of the source.

Chain of H S A (P02768 25-609): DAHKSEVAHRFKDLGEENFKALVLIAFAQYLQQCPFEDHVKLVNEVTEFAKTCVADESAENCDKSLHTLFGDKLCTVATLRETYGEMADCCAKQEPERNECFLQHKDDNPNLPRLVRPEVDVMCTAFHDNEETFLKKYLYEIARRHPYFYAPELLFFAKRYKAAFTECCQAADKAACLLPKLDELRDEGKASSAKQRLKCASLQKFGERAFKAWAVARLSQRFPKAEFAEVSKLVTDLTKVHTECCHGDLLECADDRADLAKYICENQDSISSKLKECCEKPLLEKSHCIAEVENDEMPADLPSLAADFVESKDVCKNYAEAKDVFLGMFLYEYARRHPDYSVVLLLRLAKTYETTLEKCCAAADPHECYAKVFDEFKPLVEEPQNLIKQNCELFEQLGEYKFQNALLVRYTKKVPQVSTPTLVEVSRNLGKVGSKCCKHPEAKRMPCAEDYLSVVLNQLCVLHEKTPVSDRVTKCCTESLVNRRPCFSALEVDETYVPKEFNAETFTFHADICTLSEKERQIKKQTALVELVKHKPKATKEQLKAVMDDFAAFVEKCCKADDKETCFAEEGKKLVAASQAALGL

Broadly, the Ki is the equilibrium dissociation constant of an inhibitor or competing ligand from its target. Turning to `COCCOc1nc(OC)c(NC(=O)c2ccc(Cc3cc4c(cc3C)CCCC4(C)C)o2)c(OC)n1` [Example E1, 5-(3,8,8-Trimethyl-5,6,7,8-tetrahydro-naphthalen-2-ylmethyl)-furan-2-carboxylic acid [4,6-dimethoxy-2-(2-methoxy-ethoxy)-pyrimidin-5-yl]-amide], the solubility in series [1] (setting [11]) was 2 µg/mL (≈ 3.92 µM). In addition, the “Human % rem. 30′” value in [2] is on record as 48%. Besides, in series [3], the “Fem. Rat (FR) % rem. 30′” value amounted to 76% and the “Male Rat (MR) % rem. 30′” value is given as 12%. Further, the “Dog % rem. 30′” value in series [4] was 28%. For the same molecule, in series [5], the Monkey % rem. was found to be 0%. Besides, in series [6], the Ki is 7 nM. Moreover, in series [7], the Ki worked out at 3.4 nM.
The term Cmax denotes the peak of the concentration-time curve. `COc1nc(NCCCN2CCOCC2)nc(OC)c1NC(=O)c1ccc(Cc2cc3c(cc2C)C(C)(C)OC3(C)C)o1` [Example D3, 5-(1,1,3,3,6-Pentamethyl-1,3-dihydro-isobenzofuran-5-ylmethyl)-furan-2-carboxylic Acid [4,6-dimethoxy-2-(3-morpholin-4-yl-propylamino)-pyrimidin-5-yl]-amide]: in [8], the “FR T1/2 hr” value is 2.3 h. Also, the Cmax in series [8] is 200 nM; in [8] (female, rat, plasma, po), 400 nM. Further, the half-life in [8] (female, rat, plasma, po, read-out: FR T1/2 hr (converted)) is 1.6 h. The “Male Rat (MR) % rem. 30′” value in [3] is recorded as 22%. Further, the Ki in series [6] came to 0.4 nM; in series [7], 24.5 nM. The “Rat plasma % remain” value in series [9] is given as 100%.
As to `COc1nc(NCCCNCCCN)nc(OC)c1NC(=O)c1ccc(Cc2cc3c(cc2C)C(C)(C)OC3(C)C)o1` [Example D17, N-[2-({3-[(3-Aminopropyl)amino]propyl}amino)-4,6-dimethoxypyrimidin-5-yl}-5-[(1,1,3,3,6-pentamethyl-1,3-dihydro-2-benzofuran-5-yl)methyl]-2-furamide], the “Human % rem. 30′” value in series [2] was found to be 45%. In series [3], the “Fem. Rat (FR) % rem. 30′” value is given as 24% and the “Male Rat (MR) % rem. 30′” value is 23%. In addition, the “Dog % rem. 30′” value in series [4] is 29%. Further, the Monkey % rem. in series [5] was found to be 42%. The Ki in series [6] was determined as 0.2 nM. Further, the “H S A column α” value in series [10] was found to be 10. The molecule further had a Ki in [7] of 0.65 nM.
For the molecule `COc1nc(NCCC#N)nc(OC)c1NC(=O)c1ccc(Cc2cc3c(cc2C)CCCC3(C)C)o1` [Example F2, 5-(3,8,8-Trimethyl-5,6,7,8-tetrahydro-naphthalen-2-ylmethyl)-furan-2-carboxylic acid [2-(2-cyano-ethylamino)-4,6-dimethoxy-pyrimidin-5-yl]-amide], the “Human % rem. 30′” value in series [2] came out at 70%. Moreover, the “Fem. Rat (FR) % rem. 30′” value in series [3] turned out to be 100%. Moreover, the “Male Rat (MR) % rem. 30′” value in [3] was found to be 74%. For the same molecule, the “Dog % rem. 30′” value in series [4] is on record as 85%. Also, the Monkey % rem. in series [5] is reported as 2%. Besides, the Ki in series [6] came out at 1.7 nM; in [7], 1.3 nM. The “Rat plasma % remain” value in series [9] came out at 100%.
Turning to `COc1nc(NCCCN2CCOCC2)nc(OC)c1NC(=O)c1ccc(Cc2cc3c(cc2C)C(C)(C)CCC3(C)C)o1` [Example B4, 5-(3,5,5,8,8-Pentamethyl-5,6,7,8-tetrahydro-naphthalen-2-ylmethyl)-furan-2-carboxylic Acid [4,6-dimethoxy-2-(3-morpholin-4-yl-propylamino)-pyrimidin-5-yl]-amide], in series [1] (setting [11]), the solubility was 2.5 µg/mL (≈ 4.13 µM). Besides, the “Human % rem. 30′” value in series [2] stood at 38%. Besides, in series [3], the “Fem. Rat (FR) % rem. 30′” value is 100% and the “Male Rat (MR) % rem. 30′” value is given as 38%. The “Dog % rem. 30′” value in series [4] came to 26%. Besides, the Monkey % rem. in series [5] was found to be 0%. Further, in series [6], the Ki was 0.4 nM. This molecule also displayed a Ki in [7] of 0.5 nM.
Consider `COc1nc(NCCNCCN)nc(OC)c1NC(=O)c1ccc(Cc2cc3c(cc2C)C(C)(C)OC3(C)C)o1` [Example D12, N-[2-({2-[(2-aminoethyl)amino]ethyl}amino)-4,6-dimethoxypyrimidin-5-yl]-5-[(1,1,3,3,6-pentamethyl-1,3-dihydro-2-benzofuran-5-yl)methyl]-2-furamide], for which the solubility in [1] (pH 2, simulated gastric fluid, pH2, read-out: Solubility μg/ml pH2) was over 30 µg/mL; in series [1] (setting [11]), over 30 µg/mL. Moreover, the “Human % rem. 30′” value in series [2] is listed as 81%. The “Fem. Rat (FR) % rem. 30′” value in series [3] came out at 80%. Also, in series [3], the “Male Rat (MR) % rem. 30′” value came to 54%. The “Dog % rem. 30′” value in series [4] turned out to be 59%. The Monkey % rem. in [5] came out at 37%. The Ki in series [6] turned out to be 0.8 nM; in series [7] it was 1.2 nM.
Regarding `COc1nc(NCCCN2CCOCC2)nc(OC)c1NC(=O)c1ccc(Cc2cc3c(cc2C)CCCC3(C)C)o1` [Example F1, 5-(3,8,8-Trimethyl-5,6,7,8-tetrahydro-naphthalen-2-ylmethyl)-furan-2-carboxylic acid [4,6-dimethoxy-2-(3-morpholin-4-yl-propylamino)-pyrimidin-5-yl]-amide], the solubility in series [1] (setting [11]) worked out at 12 µg/mL (≈ 20.8 µM). Also, the “Human % rem. 30′” value in series [2] amounted to 39%. For the same molecule, in [3], the “Fem. Rat (FR) % rem. 30′” value turned out to be 81% and the “Male Rat (MR) % rem. 30′” value turned out to be 36%. Further, the “Dog % rem. 30′” value in [4] came out at 31%. Also, the Monkey % rem. in series [5] came out at 0%. Moreover, in series [6], the Ki amounted to 0.35 nM. Moreover, affinity in [7] was put at a Ki of 0.91 nM.
For `COc1nc(NCCCN2CCCCC2)nc(OC)c1NC(=O)c1ccc(Cc2cc3c(cc2C)C(C)(C)OC3(C)C)o1` [Example D22, N-(4,6-Dimethoxy-2-{[3-piperidin-1-ylpropyl)amino]-pyrimidin-5-yl}-5-[(1,1,3,3,6-pentamethyl-1,3-dihydro-2-benzofuran-5-yl)methyl]-2-furamide], in [2], the “Human % rem. 30′” value turned out to be 66%. In series [3], the “Fem. Rat (FR) % rem. 30′” value was determined as 94% and the “Male Rat (MR) % rem. 30′” value was found to be 69%. The “Dog % rem. 30′” value in series [4] amounted to 87%. Also, the Monkey % rem. in series [5] was 5%. Further, in series [6], the Ki stood at 0.3 nM. In series [7], the Ki is 0.96 nM.
As for `COc1nc(NCCCCN(C)C)nc(OC)c1NC(=O)c1ccc(Cc2cc3c(cc2C)C(C)(C)OC3(C)C)o1` [Example D11, N-(2-{[4-(Dimethylamino)butyl]amino}-4,6-dimethoxy-pyrimidin-5-yl)-5-[(1,1,3,3,6-pentamethyl-1,3-dihydro-2-benzofuran-5-yl)methyl]-2-furamide], the “Human % rem. 30′” value in [2] was 62%. Moreover, in [3], the “Fem. Rat (FR) % rem. 30′” value came out at 56%. In addition, the “Male Rat (MR) % rem. 30′” value in series [3] is recorded as 42%. In addition, the “Dog % rem. 30′” value in [4] worked out at 56%. For the same molecule, the Monkey % rem. in series [5] is 20%. The Ki came out at 0.5 nM in series [6] and 1.1 nM in series [7].
